Experimental data taken from publication PMC8318231, “Rate-of-Kill (RoK) assays to triage large compound sets for Chagas disease drug discovery: Application to GSK Chagas Box” (PLoS Neglected Tropical Diseases, 2021).

Legend:
[1] = test system: T. cruzi Tulahuen trypomastigotes; assay: T. cruzi trypomastigote assay (Cell Titer-Glo viability, ATP luminescence); assay type: cell-based, Trypanosoma cruzi; settings: for Trypomastigotes pIC50 48 hours: 48 hours incubation; for Trypomastigotes pIC50 48 hours / Trypomastigotes pIC50 72 hours: pIC50 = -log10 IC50 in molar units; for Trypomastigotes pIC50 72 hours: 72 hours incubation; for 72 pIC50: 72 h
In short: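 Compounds were tested in dose response or once at a final 5 μM against 5 × 10^4 trypomastigotes per well (DMEM, 2% FBS), collected on days 5–8 from LLC-MK2 infected cultures. ATP luminescence via CellTiter-Glo reports live parasites; DMSO defines 0% and cell-free wells 100% effect.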

[2] = test system: T. cruzi intracellular amastigotes in H9c2 cells; assay: Rate-of-Kill (RoK) high-content imaging assay, amastigotes per cell (AM/CELL) and curve descriptors; assay type: cell-based, Trypanosoma cruzi; design: key to ME_24h / ME_48h / ME_72h: % reduction in parasite burden (cidal response); t50pct_MCC50 / t50pct_Cmax: unit not given here; settings: for ME_24h: 24h; for ME_48h: 48h; for ME_72h: 72h; for AM/CELL NORM: sheet figure 4 A; for t50%_Cmax / tlag_Cmax / t50pct_Cmax: at Cmax; for ME_24h (%): maximum effect at 24 h; for ME_24h (%) / ME_48h (%) / ME_72h (%): RoK assay; for ME_48h (%): maximum effect at 48 h; for ME_72h (%): maximum effect at 72 h; for ME 24h (maximum effect at 24 hours, intracellular amastigotes): maximum percentage of parasite burden reduction reached by any concentration
Method: For this high-content intracellular imaging assay, H9c2 cells were seeded in 225 cm^2 T- FLASK in DMEM with 10% FBS for 4 h to allow attachment. T. cruzi trypomastigotes, collected at days 5 to 8 after infection from LLC-MK2 parasite infected cultures, were allowed to swim out for 4 h at 37°C from a centrifuged pellet (1,600 x g / 10 min). Trypomastigotes were then collected and counted in a CASY Cell Counter using the 60 μm capillary. Trypomastigotes, in supplemented DMEM, were added to H9c2 cultures in a multiplicity of infection (MOI) of 8 and incubated for 18 h. Cells were washed once with PBS before incubation of the infected H9c2 monolayer with trypsin (Life-Technologies) to detach cells from the flask. Cells were counted in a CASY Cell Counter, using the 150 μm capillary, and their density set at 5 x 10^4 cells/mL in supplemented DMEM. Infected H9c2 were dispensed into 384-well plates at 50 μL per well using a Multidrop Combi dispenser. Control wells used to determine a 100% parasitic growth (full 6th column of each plate) were left untreated, whereas not infected cells were added in the control wells used as 0% parasite growth (or 100% parasite growth inhibition; full 18th column of each plate). The four plates corresponding to each RoK assay were predispensed for the same mother plate. […] Cultures were then fixed and stained with 50 μL per well of a PBS solution containing 4% formaldehyde and 2 μM DRAQ5 DNA dye (BioStatus, UK). Then plates were read in a PerkinElmer Opera Phenix using a 20x objective, 3 fields per well. DRAQ5 signal was detected using 640 nm excitation laser and a 690/50 nm emission detection filter. Automated image analysis was performed with a script developed on Acapella High Content Imaging and Analysis Software (PerkinElmer). Two outputs were provided for each sample well: (1) number of host cells nuclei to determine drug-related cytotoxicity (aka H9c2) and (2) number of amastigotes per cell as infection level measurement (aka AM/CELL). Each output is plotted as a time course for each compound at every concentration. This assay was adapted from Alonso-Padilla et al. and Peña et al..
To identify and classify the different compounds, the number of amastigotes per cell (AM/CELL) raw data obtained in rate of kill assay are normalised using the average of C1 (infected cells) at time 4 hours as 0% effect and the average of C2 (non-infected cells) for each time as 100% effect, according to the following Eq 1: %CIDALRESPONSE=100*[Avg_C14h-RawData]/[Avg_C14h-Avg_C2] (1)
• ME (Maximum Effect) is the maximum percentage of parasite burden reduction reached by any compound concentration. Compounds that decrease the initial parasite load will show a positive value of ME, whereas compounds that allow the progression of infection will render a negative ME value. […] It is calculated for the MCC50 (t50%_MCC50) and for the maximum concentration (t50%_Cmax). […] The value of this parameter is not either interpolated or extrapolated, and it refers to the first experimental time-course point at which a 50% of effect is reached or exceeded. • tlag defines the time elapsed for one particular concentration to reduce parasite burden between two consecutive points at any moment of the time course. It is calculated for the MCC50 (tlag_MCC50) and for the maximum concentration (tlag_Cmax). The value of this parameter is not either interpolated or extrapolated, and it refers to the first experimental time-course point of a positive slope in the normalised plot (i.e. %Cidal_Response). • Cmin_Tox (Minimal CytoToxic Concentration) is the lowest compound concentration that is reducing the number of host mammalian cells below 50% of initial cell density. Cytotoxic compounds may mislead a bona fide antiparasitic action.

[3] = test system: TcCYP51; settings: formerly reported; cited from earlier work

CN1CCCN(C(=O)c2ccc(N3CCCC3)cc2Cl)CC1 [TCMDC-143127]
Trypomastigotes pIC50 48 hours [1]: < 4.3
Trypomastigotes pIC50 72 hours [1]: < 4.3
72 pIC50 (trypomastigotes, raw data of Fig 1D) ([1]; 72 hours, plotted values, censored values given without sign): < 4.3
48 pIC50 ([1]; trypomastigote assay, 48 h, figure 1A): < 4.3
72 pIC50 ([1]; trypomastigote assay, figure 1A): < 4.3
72 pIC50 ([1]; trypomastigote assay, figure 1B): < 4.3
ME_24h ([2]; figure 5): -63.1294
ME_48h ([2]; figure 5): 41.4777
ME_72h ([2]; figure 5): 77.6777
MCC50 ([2]; RoK curve descriptor): 7.0 µM
MCCE ([2]; RoK curve descriptor): 1.9 µM
AM/CELL NORM ([2]; Time 4): 3.238
AM/CELL NORM ([2]; Time 24): -70.995
AM/CELL NORM ([2]; Time 48): 17.9659
AM/CELL NORM ([2]; Time 72): 59.5367
t50%_Cmax [2]: 67.2 h
tlag_Cmax [2]: 24.0 h
t50pct_Cmax ([2]; figure 5): 67.2
tlag_Cmax ([2]; figure 5): 24
t50%_MCC50 ([2]; at MCC50): 72.0 h
tlag_MCC50 ([2]; at MCC50): 24.0 h
t50pct_MCC50 ([2]; at MCC50, figure 5): 72
tlag_MCC50 ([2]; at MCC50, figure 5): 24
MCCE ([2]; figure 5): 1.852
MCC50 ([2]; figure 5, in µM): 7.037
ME_24h (%) [2]: -63.1%
ME_48h (%) [2]: 41.5%
ME_72h (%) [2]: 77.7%
ME 24h (maximum effect at 24 hours, intracellular amastigotes) [2]: -38.4049%
CYP51 pIC50 [3]: < 4

COc1ccc(C2CC(c3ccccc3Cl)=NN2C(=O)CNC(=O)C2CCC2)cc1 (stereo not shown) [TCMDC-143130]
Trypomastigotes pIC50 48 hours [1]: 4.6
Trypomastigotes pIC50 72 hours [1]: 4.7
ME_24h ([2]; figure 5): 26.5695
ME_48h ([2]; figure 5): 65.3197
ME_72h ([2]; figure 5): 85.0018
MCC50 ([2]; RoK curve descriptor): 5.6 µM
MCCE ([2]; RoK curve descriptor): 1.9 µM
AM/CELL NORM ([2]; Time 4): 21.8567
AM/CELL NORM ([2]; Time 24): 26.5695
AM/CELL NORM ([2]; Time 48): 65.3197
AM/CELL NORM ([2]; Time 72): 85.0018
t50%_Cmax [2]: 48.0 h
tlag_Cmax [2]: 4.0 h
t50pct_Cmax ([2]; figure 5): 48
tlag_Cmax ([2]; figure 5): 4
t50%_MCC50 ([2]; at MCC50): 72.0 h
tlag_MCC50 ([2]; at MCC50): 4.0 h
t50pct_MCC50 ([2]; at MCC50, figure 5): 72
tlag_MCC50 ([2]; at MCC50, figure 5): 4
MCCE ([2]; figure 5): 1.852
MCC50 ([2]; figure 5, in µM): 5.556
ME_24h (%) [2]: 26.6%
ME_48h (%) [2]: 65.3%
ME_72h (%) [2]: 85.0%
ME 24h (maximum effect at 24 hours, intracellular amastigotes) [2]: 26.5695%
CYP51 pIC50 [3]: 4.3

CCC(=O)Nc1ccc(-c2nc3ccc(Cl)cc3[nH]2)cc1 [TCMDC-143135]
Trypomastigotes pIC50 48 hours [1]: 5.3
Trypomastigotes pIC50 72 hours [1]: 5.4
ME_24h ([2]; figure 5): 52.1566
ME_48h ([2]; figure 5): 46.9478
ME_72h ([2]; figure 5): 38.7036
MCCE ([2]; RoK curve descriptor): 5.6 µM
AM/CELL NORM ([2]; Time 4): -141.214
AM/CELL NORM ([2]; Time 24): -21.5946
AM/CELL NORM ([2]; Time 48): -76.5792
AM/CELL NORM ([2]; Time 72): -95.9437
tlag_Cmax [2]: 4.0 h
t50pct_Cmax ([2]; figure 5): 72
tlag_Cmax ([2]; figure 5): 4
t50%_MCC50 ([2]; at MCC50): 24.0 h
tlag_MCC50 ([2]; at MCC50): 4.0 h
t50pct_MCC50 ([2]; at MCC50, figure 5): 24
tlag_MCC50 ([2]; at MCC50, figure 5): 4
MCCE ([2]; figure 5): 5.556
ME_24h (%) [2]: 52.2%
ME_48h (%) [2]: 47.0%
ME_72h (%) [2]: 38.7%
ME 24h (maximum effect at 24 hours, intracellular amastigotes) [2]: 52.1566%
CYP51 pIC50 [3]: < 4
